Like-named read-outs stand apart in the source and are kept apart here.
Assays:
CYP2A6 = target: T1, CYP2A6 (Homo sapiens, UniProt P11509); conditions: both, 20 min
T1 sequence (P11509 1-494): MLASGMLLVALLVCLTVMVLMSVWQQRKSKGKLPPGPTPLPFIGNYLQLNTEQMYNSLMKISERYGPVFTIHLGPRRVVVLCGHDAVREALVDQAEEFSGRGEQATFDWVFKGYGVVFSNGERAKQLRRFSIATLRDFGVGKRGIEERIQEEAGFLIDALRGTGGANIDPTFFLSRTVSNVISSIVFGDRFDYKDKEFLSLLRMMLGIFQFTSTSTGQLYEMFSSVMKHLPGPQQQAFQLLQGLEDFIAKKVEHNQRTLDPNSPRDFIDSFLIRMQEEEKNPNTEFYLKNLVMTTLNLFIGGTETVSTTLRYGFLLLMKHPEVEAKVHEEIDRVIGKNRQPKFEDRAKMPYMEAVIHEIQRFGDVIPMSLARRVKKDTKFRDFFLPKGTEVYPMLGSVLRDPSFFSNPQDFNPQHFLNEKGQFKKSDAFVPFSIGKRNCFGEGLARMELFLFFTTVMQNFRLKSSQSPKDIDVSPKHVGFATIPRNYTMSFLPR

CYP1A2 = target: T2, CYP1A2 (Homo sapiens, UniProt P05177); conditions: both, 30 min
T2 sequence (P05177 1-516): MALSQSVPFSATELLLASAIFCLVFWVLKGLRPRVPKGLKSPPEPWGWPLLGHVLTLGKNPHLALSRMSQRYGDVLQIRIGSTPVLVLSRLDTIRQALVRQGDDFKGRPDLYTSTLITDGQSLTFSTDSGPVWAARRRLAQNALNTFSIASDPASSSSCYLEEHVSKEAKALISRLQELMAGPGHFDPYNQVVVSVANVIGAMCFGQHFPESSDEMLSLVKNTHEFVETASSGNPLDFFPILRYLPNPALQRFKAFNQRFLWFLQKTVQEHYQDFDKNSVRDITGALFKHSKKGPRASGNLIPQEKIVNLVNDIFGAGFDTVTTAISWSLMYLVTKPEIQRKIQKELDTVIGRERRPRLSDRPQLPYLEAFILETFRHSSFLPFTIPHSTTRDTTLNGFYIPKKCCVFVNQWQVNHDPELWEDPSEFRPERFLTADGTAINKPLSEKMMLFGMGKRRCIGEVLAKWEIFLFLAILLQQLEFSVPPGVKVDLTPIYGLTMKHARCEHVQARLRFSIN

CYP2C19 = CYP2C19 (Homo sapiens, UniProt P33261); assay: Cytochrome P450 isoform inhibition in human hepatic microsomes, S-mephenytoin (Example 18); assay type: in vitro ADME
Sequence of CYP2C19 (P33261 whole entry, canonical isoform): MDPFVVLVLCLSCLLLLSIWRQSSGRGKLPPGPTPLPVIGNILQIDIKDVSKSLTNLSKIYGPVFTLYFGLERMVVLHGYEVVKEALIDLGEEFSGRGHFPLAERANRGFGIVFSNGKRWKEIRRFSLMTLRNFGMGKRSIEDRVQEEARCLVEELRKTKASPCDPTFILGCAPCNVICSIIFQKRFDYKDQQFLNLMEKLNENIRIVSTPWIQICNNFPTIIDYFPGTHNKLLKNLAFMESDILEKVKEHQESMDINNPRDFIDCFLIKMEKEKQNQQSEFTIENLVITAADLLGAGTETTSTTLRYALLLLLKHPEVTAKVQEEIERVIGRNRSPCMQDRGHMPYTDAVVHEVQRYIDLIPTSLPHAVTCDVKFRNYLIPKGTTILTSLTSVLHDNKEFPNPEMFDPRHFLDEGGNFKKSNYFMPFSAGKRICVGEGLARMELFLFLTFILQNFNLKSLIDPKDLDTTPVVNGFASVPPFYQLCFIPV

For `O=C(O)C(Oc1cccc(C(F)(F)F)c1)c1ccc(Cl)cc1` (single isomer, unassigned; (-)) [(−) halofenic acid, (−) 4-chlorophenyl-(3-trifluoromethylphenoxy)-acetic acid], the “Coumarin 7-HC Production” value (CYP2A6; 0.33 μM) was 33.3 ± 0.7 pmol/mg protein/min, the “Coumarin 7-HC Production” value (CYP2A6; 1 μM) was 32.6 ± 0.7 pmol/mg protein/min and the “Coumarin 7-HC Production” value (CYP2A6; 3.3 μM) was 32.1 ± 0.7 pmol/mg protein/min. For the same compound, the “Coumarin 7-HC Production” value (CYP2A6; 10 μM) was 33.1 ± 0.7 pmol/mg protein/min, the “Coumarin 7-HC Production” value (CYP2A6; 33.3 μM) was 32.3 ± 0.7 pmol/mg protein/min and the “Phenacetin AC Production” value (CYP1A2; 0.33 μM) was 116 ± 2 pmol/mg protein/min. For the same compound, the “Phenacetin AC Production” value (CYP1A2; 1 μM) was 118 ± 2 pmol/mg protein/min, the “Phenacetin AC Production” value (CYP1A2; 3.3 μM) was 119 ± 2 pmol/mg protein/min and the “Phenacetin AC Production” value (CYP1A2; 10 μM) was 119 ± 2 pmol/mg protein/min. For the same compound, the “Phenacetin AC Production” value (CYP1A2; 33.3 μM) was 119 ± 2 pmol/mg protein/min, the inhibition at 30 min, 0.33 μM (CYP2C19; both sexes, human, pooled human hepatic microsomes, probe S-mephenytoin 50 μM, test article 0.33 μM) was 4% and the inhibition at 30 min, 1 μM (CYP2C19; both sexes, human, pooled human hepatic microsomes, probe S-mephenytoin 50 μM, test article 1.0 μM) was 5%. For the same compound, the inhibition at 30 min, 3.3 μM (CYP2C19; both sexes, human, pooled human hepatic microsomes, probe S-mephenytoin 50 μM, test article 3.3 μM) was 15%, the inhibition at 30 min, 10 μM (CYP2C19; both sexes, human, pooled human hepatic microsomes, probe S-mephenytoin 50 μM, test article 10 μM) was 23% and the inhibition at 30 min, 33.3 μM (CYP2C19; both sexes, human, pooled human hepatic microsomes, probe S-mephenytoin 50 μM, test article 33.3 μM) was 43%. The IC50 (CYP2C19; human hepatic microsomes 1 mg/mL, 50 μM S-mephenytoin, 30 minutes, read-out: IC50, 4-hydroxymephenytoin production (CYP2C19)) was > 33.3 µM.
